Source: the NIST ThermoML archive (doi:10.1016/j.jct.2015.06.009)
± gives the expanded uncertainty stated by the source.

Assays:
[1] = 101 kPa, Liquid; for speed of sound: Frequency=3 MHz, Sing-around technique in a fixed-path interferometer; for mass density: Vibrating tube method
[2] = refractive index (Na D-line) (dimensionless); settings: 298.15 K; 101.33 kPa; Liquid; Standard Abbe refractometry
[3] = xn = mol fraction of the nth substance listed; settings: 101 kPa, Liquid; for speed of sound: Frequency=3 MHz, Sing-around technique in a fixed-path interferometer; for mass density: Vibrating tube method

## COC(C)(C)C [2-methoxy-2-methylpropane]
[1]; 298.15 K
  speed of sound: 1036.3 ± 1.1 m/s
  mass density: 735.21 ± 0.16 kg/m3
[1]; 308.15 K
  speed of sound: 990.46 ± 1.1 m/s
  mass density: 724.64 ± 0.16 kg/m3
[1]; 318.15 K
  speed of sound: 944.87 ± 1.1 m/s
  mass density: 714 ± 0.17 kg/m3
[1]; 328.15 K
  mass density: 703.29 ± 0.17 kg/m3
[2]
  refractive index: 1.36648 ± 0.00031

## CCCCO [butan-1-ol]
[1]; 298.15 K
  speed of sound: 1240 ± 1.2 m/s
  mass density: 805.73 ± 0.14 kg/m3
[1]; 308.15 K
  speed of sound: 1206.6 ± 1.2 m/s
  mass density: 798.07 ± 0.15 kg/m3
[1]; 318.15 K
  speed of sound: 1173.4 ± 1.2 m/s
  mass density: 790.37 ± 0.15 kg/m3
[1]; 328.15 K
  speed of sound: 1140.4 ± 1.2 m/s
  mass density: 782.58 ± 0.15 kg/m3
[2]
  refractive index: 1.39733 ± 0.00031

## CCCCO [butan-1-ol] + COC(C)(C)C
[3]; 298.15 K, x2 = 0
  speed of sound: 1240 ± 1.2 m/s
  mass density: 805.73 ± 0.14 kg/m3
[3]; 308.15 K, x2 = 0
  speed of sound: 1206.6 ± 1.2 m/s
  mass density: 798.07 ± 0.15 kg/m3
[3]; 318.15 K, x2 = 0
  speed of sound: 1173.4 ± 1.2 m/s
  mass density: 790.37 ± 0.15 kg/m3
[3]; 328.15 K, x2 = 0
  speed of sound: 1140.4 ± 1.2 m/s
  mass density: 782.58 ± 0.15 kg/m3

## CCCCO [butan-1-ol] + Cc1ccccc1
[3]; 298.15 K, x2 = 0.2008
  speed of sound: 1248 ± 1.2 m/s
  mass density: 818.72 ± 0.14 kg/m3
[3]; 298.15 K, x2 = 0.4064
  speed of sound: 1255.5 ± 1.2 m/s
  mass density: 830.53 ± 0.14 kg/m3
[3]; 298.15 K, x2 = 0.5993
  speed of sound: 1263.8 ± 1.2 m/s
  mass density: 840.92 ± 0.13 kg/m3
[3]; 298.15 K, x2 = 0.7995
  speed of sound: 1277.3 ± 1.2 m/s
  mass density: 851.36 ± 0.13 kg/m3
[3]; 308.15 K, x2 = 0.2008
  speed of sound: 1212.2 ± 1.2 m/s
  mass density: 810.48 ± 0.14 kg/m3
[3]; 308.15 K, x2 = 0.4064
  speed of sound: 1217.6 ± 1.2 m/s
  mass density: 821.82 ± 0.14 kg/m3
[3]; 308.15 K, x2 = 0.5993
  speed of sound: 1224.6 ± 1.2 m/s
  mass density: 831.87 ± 0.14 kg/m3
[3]; 308.15 K, x2 = 0.7995
  speed of sound: 1237.1 ± 1.2 m/s
  mass density: 842.08 ± 0.13 kg/m3
[3]; 318.15 K, x2 = 0.2008
  speed of sound: 1176.5 ± 1.2 m/s
  mass density: 802.18 ± 0.14 kg/m3
[3]; 318.15 K, x2 = 0.4064
  speed of sound: 1180.1 ± 1.2 m/s
  mass density: 813.05 ± 0.14 kg/m3
[3]; 318.15 K, x2 = 0.5993
  speed of sound: 1185.7 ± 1.1 m/s
  mass density: 822.79 ± 0.14 kg/m3
[3]; 318.15 K, x2 = 0.7995
  speed of sound: 1197.3 ± 1.1 m/s
  mass density: 832.78 ± 0.14 kg/m3
[3]; 328.15 K, x2 = 0.2008
  speed of sound: 1141.2 ± 1.2 m/s
  mass density: 793.77 ± 0.15 kg/m3
[3]; 328.15 K, x2 = 0.4064
  speed of sound: 1143 ± 1.1 m/s
  mass density: 804.18 ± 0.14 kg/m3
[3]; 328.15 K, x2 = 0.5993
  speed of sound: 1147.5 ± 1.1 m/s
  mass density: 813.62 ± 0.14 kg/m3
[3]; 328.15 K, x2 = 0.7995
  speed of sound: 1158.2 ± 1.1 m/s
  mass density: 823.42 ± 0.14 kg/m3

## Cc1ccccc1 [toluene]
[1]; 298.15 K
  speed of sound: 1305.3 ± 1.2 m/s
  mass density: 862.18 ± 0.13 kg/m3
[1]; 308.15 K
  speed of sound: 1262.5 ± 1.2 m/s
  mass density: 852.87 ± 0.13 kg/m3
[1]; 318.15 K
  speed of sound: 1220.2 ± 1.2 m/s
  mass density: 843.58 ± 0.13 kg/m3
[1]; 328.15 K
  speed of sound: 1178.5 ± 1.1 m/s
  mass density: 834.29 ± 0.13 kg/m3
[2]
  refractive index: 1.49393 ± 0.00031
